Data reported in patent publication US6726940B2, “Use of at least one extract of the genus chrysanthemum for assisting skin and/or hair pigmentation” (Societe L'Oreal S.A., priority 1997, dated 2004).

What was measured:
[1] = system: co-cultures of normal human keratinocytes/melanocytes; assay: Modulation of melanogenesis: incorporation of 14C thiouracil in co-cultures of keratinocytes/melanocytes; assay type: cell-based; settings: NHK/NHM co-culture, three days treatment
Protocol: The modulator effect on melanogenesis of the extract obtained by Protocol 2 of Example 1 was tested on co-cultures of normal human keratinocytes/melanocytes according to the method described in the Patent FR 95 06491. The rate of synthesis of melanine is evaluated by the incorporation of thiouracil labelled with C^14. The synthesis of the proteins, determined by the incorporation of tritiated leucine, is taken as an indicator of cytotoxicity and of proliferation. The normal human keratinocytes (NHK) and the normal human melanocytes (NHM) are cultured from preputial skin. The two types of cells are proliferated and stored frozen. […] The proteins are precipitated with the aid of 5% trichloroacetic acid (TCA) and washed in order to eliminate the free radioactivity. […] The radioactivity is counted with the aid of the Wallac counter. The results are expressed as a percentage of the control according to the formula: [formula] in which: ^14CP is the average of the disintegrations per minute (dpm) of ^14C thiouracil in 3 similar wells treated with a product (P); ^3HP is the average of the corresponding ^3H leucine dpm; ^14CT is the average of the ^14C thiouracil dpm in 3 similar control wells (T); ^3HT is the average of the corresponding ^3H leucine dpm.

[2] = system: co-cultures of normal human keratinocytes/melanocytes; assay: Synthesis of proteins: incorporation of tritiated leucine, indicator of cytotoxicity and of proliferation; assay type: cell-based; settings: NHK/NHM co-culture, three days treatment
Protocol: The modulator effect on melanogenesis of the extract obtained by Protocol 2 of Example 1 was tested on co-cultures of normal human keratinocytes/melanocytes according to the method described in the Patent FR 95 06491. The rate of synthesis of melanine is evaluated by the incorporation of thiouracil labelled with C^14. The synthesis of the proteins, determined by the incorporation of tritiated leucine, is taken as an indicator of cytotoxicity and of proliferation.
The normal human keratinocytes (NHK) and the normal human melanocytes (NHM) are cultured from preputial skin. The two types of cells are proliferated and stored frozen. Eight days before the test, each of the cell types is again put into culture in KGM medium from Gibco for keratinocytes (NHK) and into M2 medium from Dr Olsson for melanocytes (NHM) (Olsson, M. J. et al., Lancet (1992) 340, 981). […]
The total radioactivity incorporated in the proteins is estimated by the incorporation of tritiated leucine. […]
After one night, the cells are rinsed in phosphate buffer. The proteins are precipitated with the aid of 5% trichloroacetic acid (TCA) and washed in order to eliminate the free radioactivity. […]
The remainder of the extract, or 950 μl, is filtered through a DEAE Filtermat filter. […] The radioactivity is counted with the aid of the Wallac counter. The results are expressed as a percentage of the control according to the formula: [formula] […]

Row | Compound | ^14CThioU. (%/control) ([1]; 0.5 mM) | ^3HLeu. (%/control) ([2]; 0.5 mM) | ^14CThioU. (%/control) ([1]; 1 mM) | ^3HLeu. (%/control) ([2]; 1 mM)
1 | O=c1cc(CO)occ1O [kojic acid] | −47 | +4 %/control |  | 
2 | N[C@@H](Cc1ccc(O)cc1)C(=O)O [tyrosine] |  |  | +118 %/control | −2
